Some test systems named below: ACHN renal; CAKI-1 renal; K-562 leukemia; MDA-MB-231 breast; PC-3 prostate; SK-MEL-28 melanoma; T-47D breast; U251 CNS; UACC-257 melanoma; SK-MEL-5 melanoma.
What all share (assay): growth of human tumour cells (NCI), 48 h

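Exposure lasted 48 hours, with cells grown in 96-well plates and compounds tested at five concentrations. GI50: concentration for 50% inhibition of growth. TGI: total growth inhibition.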

`Cc1ccc(S(=O)(=O)c2nc(-c3ccccc3)oc2S(C)(=O)=O)cc1`: the GI50 in the experiment with ACHN renal is 1.76 µM; in the experiment with CAKI-1 renal it was 1.8 µM; in the experiment with K-562 leukemia it was 1.59 µM; in the experiment with MDA-MB-231 breast, 1.87 µM; with PC-3 prostate it was 10.4 µM; with SK-MEL-28 melanoma, 1.92 µM. In addition, the values for the GI50 with T-47D breast, with U251 CNS and with UACC-257 melanoma were 1.87 µM, 5.88 µM and 3.01 µM, respectively. For the same compound, the TGI was 3.13 µM in the experiment with ACHN renal; 3.21 µM with CAKI-1 renal; 4.3 µM in the experiment with K-562 leukemia; 3.76 µM in the experiment with MDA-MB-231 breast; 23.1 µM in the experiment on PC-3 prostate; 3.77 µM in the experiment on SK-MEL-28 melanoma. The TGI with T-47D breast amounted to 3.93 µM; in the experiment with U251 CNS, 18.3 µM; with UACC-257 melanoma it was 12.2 µM.

Turning to `Nc1c(C(=O)c2cccc(C#CCN3CCCCC3)c2)cnn1-c1ccc(F)cc1`, the GI50 is more than 19.2 µM in the experiment with ACHN renal; more than 25 µM in the experiment on CAKI-1 renal; 13.1 µM in the experiment with K-562 leukemia; more than 25 µM with MDA-MB-231 breast; more than 25 µM in the experiment with PC-3 prostate; more than 25 µM in the experiment on SK-MEL-28 melanoma. In addition, the GI50 in the experiment with SK-MEL-5 melanoma is 9.59 µM; in the experiment on T-47D breast, 11.3 µM; in the experiment on U251 CNS it was more than 25 µM; with UACC-257 melanoma, more than 24.1 µM. The TGI in the experiment with ACHN renal, in the experiment on CAKI-1 renal, in the experiment with K-562 leukemia, in the experiment with MDA-MB-231 breast, with PC-3 prostate and in the experiment on SK-MEL-28 melanoma was more than 25 µM in each case. Besides, the TGI in the experiment on SK-MEL-5 melanoma, in the experiment on T-47D breast, in the experiment on U251 CNS and in the experiment with UACC-257 melanoma was more than 25 µM in each case.

Take `NC(=O)c1cccnc1`: the GI50 in the experiment with ACHN renal, in the experiment with CAKI-1 renal, in the experiment with K-562 leukemia, in the experiment with MDA-MB-231 breast, in the experiment on PC-3 prostate and in the experiment on SK-MEL-28 melanoma was more than 100 µM throughout. For the same compound, the GI50 in the experiment with T-47D breast, with U251 CNS and in the experiment with UACC-257 melanoma was more than 100 µM throughout. The TGI with ACHN renal, in the experiment on CAKI-1 renal, with K-562 leukemia, in the experiment on MDA-MB-231 breast, with PC-3 prostate and in the experiment on SK-MEL-28 melanoma was more than 100 µM in each case. The TGI in the experiment on T-47D breast, in the experiment with U251 CNS and with UACC-257 melanoma was more than 100 µM each time.

Consider `CCCC1(CN2c3ccccc3Sc3ccc(Cl)cc32)CCN(CC)C1` (stereo unspecified), for which the GI50 with ACHN renal is 1.76 µM; in the experiment with CAKI-1 renal, 1.7 µM; in the experiment with MDA-MB-231 breast, 1.88 µM; in the experiment on PC-3 prostate, 1.68 µM; in the experiment on SK-MEL-28 melanoma it was 1.92 µM; with SK-MEL-5 melanoma, 1.62 µM. Moreover, the GI50 is 2.21 µM in the experiment on T-47D breast, 1.66 µM in the experiment with U251 CNS and 1.77 µM in the experiment on UACC-257 melanoma. Also, the TGI in the experiment with ACHN renal came out at 3.31 µM; in the experiment with CAKI-1 renal, 3.2 µM; with MDA-MB-231 breast, 3.55 µM; in the experiment on PC-3 prostate, 3.38 µM; in the experiment on SK-MEL-28 melanoma, 3.48 µM; with SK-MEL-5 melanoma it was 3 µM. The TGI stood at 5.03 µM in the experiment with T-47D breast, 3.16 µM in the experiment with U251 CNS and 3.56 µM in the experiment with UACC-257 melanoma.

With `C=C1C(=O)O[C@H]2[C@H]1CC/C(Cn1cc(-c3ccc(N)cc3)nn1)=C\CC[C@@]1(C)O[C@@H]21`, the GI50 in the experiment with ACHN renal is 2.65 µM; with CAKI-1 renal it was 1.77 µM; with K-562 leukemia it was 2.99 µM; in the experiment on MDA-MB-231 breast it was 3.45 µM; in the experiment on PC-3 prostate, 10.1 µM; in the experiment with SK-MEL-28 melanoma, 2.71 µM. The GI50 in the experiment on SK-MEL-5 melanoma is 3.47 µM; in the experiment on T-47D breast it was 2.23 µM; with U251 CNS, 4.16 µM. Also, the TGI was 12 µM in the experiment with ACHN renal; 7.03 µM in the experiment on CAKI-1 renal; more than 100 µM with K-562 leukemia; 15.8 µM with MDA-MB-231 breast; 24.6 µM in the experiment on PC-3 prostate; 7.54 µM in the experiment with SK-MEL-28 melanoma. The TGI with SK-MEL-5 melanoma is 12.7 µM; with T-47D breast it was 5.77 µM; in the experiment on U251 CNS, 16.5 µM.

For the compound `CC(=O)/C=C/c1ccc(Nc2c3ccccc3nc3occ(Cl)c23)cc1`, the GI50 in the experiment with ACHN renal is 3.32 µM; in the experiment on CAKI-1 renal it was 0.159 µM; in the experiment with K-562 leukemia it was 2.45 µM; in the experiment with MDA-MB-231 breast, 2.63 µM; in the experiment with PC-3 prostate it was 2.63 µM; with SK-MEL-28 melanoma, 15.1 µM. The GI50 was 4.82 µM with T-47D breast, 2.33 µM in the experiment on U251 CNS and 1.24 µM with UACC-257 melanoma. In addition, the TGI in the experiment on ACHN renal was 12.5 µM; in the experiment with CAKI-1 renal, 1.07 µM; in the experiment on K-562 leukemia, 13.3 µM; in the experiment on MDA-MB-231 breast, 9.06 µM; in the experiment on PC-3 prostate it was 18.8 µM; in the experiment on SK-MEL-28 melanoma it was more than 100 µM. Besides, the TGI in the experiment with T-47D breast turned out to be 76.3 µM; in the experiment on U251 CNS, 6.83 µM; with UACC-257 melanoma, 5.59 µM.

As to `COc1ccc2c(c1)C(=O)/C(=C/c1cccc(OCC(=O)Nc3nc(C)c(C)s3)c1)O2`, the GI50 in the experiment with ACHN renal is 0.139 µM; with CAKI-1 renal it was 0.271 µM; in the experiment with K-562 leukemia, 0.24 µM; with MDA-MB-231 breast, 0.121 µM; in the experiment on PC-3 prostate, 0.0417 µM; with SK-MEL-28 melanoma it was 0.504 µM. Moreover, the GI50 was 0.886 µM in the experiment with SK-MEL-5 melanoma, 1.99 µM in the experiment on T-47D breast and 12.8 µM in the experiment on UACC-257 melanoma. For the same compound, the TGI is 0.779 µM in the experiment on ACHN renal; 1.16 µM in the experiment with CAKI-1 renal; 0.738 µM in the experiment on MDA-MB-231 breast; 0.226 µM in the experiment on PC-3 prostate; 1.72 µM with SK-MEL-28 melanoma; 2.81 µM in the experiment with SK-MEL-5 melanoma. Moreover, the TGI in the experiment with T-47D breast was 4.65 µM; in the experiment on UACC-257 melanoma it was 26.3 µM.

With `CO[C@H]1/C=C/O[C@@]2(C)Oc3c(C)c(O)c4c(O)c(c(/C=N/N5CCN(C)CC5)c(O)c4c3C2=O)NC(=O)/C(C)=C\C=C\[C@H](C)[C@H](O)[C@@H](C)[C@@H](O)[C@@H](C)[C@H](OC(C)=O)[C@@H]1C`, the TGI in the experiment with ACHN renal, in the experiment on CAKI-1 renal, in the experiment on K-562 leukemia, with MDA-MB-231 breast, in the experiment on PC-3 prostate and with SK-MEL-28 melanoma was more than 100 µM each time. For the same compound, the TGI in the experiment with SK-MEL-5 melanoma, in the experiment on T-47D breast and with UACC-257 melanoma was more than 100 µM in each case.

(Values after PubChem BioAssay (NCI).)
